“Also recorded” adds a separate entry of the source. Like-named read-outs stand apart in the source and are kept apart here.
Legend:
[1] = Human dosimetry estimation (MIRDOSE 3.1 from mouse biodistribution)
Text: Urinary radioactivity was assumed to be retained within the urinary bladder. […] Since urinary excretion patterns in rodents are commonly more rapid than in the human, the assumption of no urinary clearance of radioactivity was precautionary. Bone uptake was distributed at the bone surfaces. The 70 kg adult male ORNL phantom was used since this would best reflect the primary study population (prostate carcinoma).

[2] = Stability of FCH in human whole blood; type: in vitro ADME; details: 2 hr, 37 C, blood of healthy human subjects (n=5)
Method: The stability of FCH in its prepared form was evaluated by monitoring the radiochemical purity using the HPLC system described above. […] After an incubation of 2 hr at 37 C, the plasma was separated, the plasma proteins precipitated by adding two volumes of methanol, and the supernatant was analyzed for intact FCH by cation-exchange HPLC. […] FCH was also found to be stable in a blood samples taken from healthy human subjects (n=5).

yeast choline kinase = target: T1, yeast choline kinase (Saccharomyces cerevisiae, UniProt P20485); test: In vitro phosphorylation by yeast choline kinase; type: biochemical
T1 sequence (P20485 1-582): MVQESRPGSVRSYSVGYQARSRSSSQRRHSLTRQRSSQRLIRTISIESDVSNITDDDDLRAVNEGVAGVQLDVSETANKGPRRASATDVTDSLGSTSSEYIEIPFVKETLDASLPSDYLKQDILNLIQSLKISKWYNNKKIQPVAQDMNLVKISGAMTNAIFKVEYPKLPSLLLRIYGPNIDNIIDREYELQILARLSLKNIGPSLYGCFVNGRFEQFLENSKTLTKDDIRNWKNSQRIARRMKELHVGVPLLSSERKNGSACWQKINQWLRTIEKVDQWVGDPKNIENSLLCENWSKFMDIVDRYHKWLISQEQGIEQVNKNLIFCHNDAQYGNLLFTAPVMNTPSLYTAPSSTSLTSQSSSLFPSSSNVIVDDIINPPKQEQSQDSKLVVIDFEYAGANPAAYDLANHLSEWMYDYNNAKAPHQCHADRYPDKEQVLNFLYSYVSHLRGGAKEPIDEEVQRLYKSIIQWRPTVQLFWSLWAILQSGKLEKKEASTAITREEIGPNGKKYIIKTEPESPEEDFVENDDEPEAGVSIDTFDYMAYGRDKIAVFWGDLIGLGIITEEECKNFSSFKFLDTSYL
Method: The test tube was gently agitated throughout the incubation period. The reaction was stopped by placing the tube in a boiling water bath for 2 min. To serve as controls, some samples were placed directly in the boiling water bath after addition of all substrates. […] The percentage of radioactivity converted to the phosphorylated form was calculated.

[3] = test system: mice with PC-3 xenografts
Method: Body weight and tumor volume were measured weekly and tumor volume (mm3) was calculated using the formula S2×L/2, where S and L represent the small and large diameters of the tumor, respectively.
A prescribed duration of time was allowed before procurement of heart, liver, lung, blood, kidney, bone (femur), brain (whole), prostate gland, tumor, bladder, and skeletal muscle. The tissues were weighed, and counted for ^18F in a gamma counter, then dissolved in Solvable (Dupont, Boston Mass.) and counted for ^14C in a liquid scintillation counter. For the bladder, the percentage of the injected dose in the urine was determined. For all other tissues, radiotracer uptake was calculated as: […]

[4] = test system: PC-3 prostate cancer cells; test: Analysis of radiolabeled metabolites in PC-3 prostate cancer cells; type: cell-based, human
Method: The primary hydrophilic metabolites of choline in mammals is phosphocholine and betaine. […] The HPLC system used a microprocessor-controlled solvent delivery system and a silica column (Adsorbosphere Silica (10μ), 250×4.6 mm, Alltech, Deerfield, Ill.). The column was kept at room temperature and the flow rate was maintained at 1.5 ml/min. […] Fractions of effluent were collected every 0.5 min and first counted for ^18F-radioactivity in a well-counter for experiments involving [^18F]FCH, then transferred to scintillation vials for counting for ^14C-radioactivity. The column was equilibrated for 6 min with Buffer A before injection. After the injection (<100 μl), Buffer A was delivered for 6 min which eluted betaine (3 min) from the column. […] Re-equilibration of the column with 100% A for 6 min preceded the next injection.
Methanol (1 ml) was added to each well and the cells were lysed by maintaining the temperature at 37° C. for 30 min. The methanol phase was transferred to a glass test tube. Each well was rinsed with an additional 0.5 ml methanol which was added to the original fraction. To each tube, 3 ml chloroform and 1 ml 0.25 M sodium phosphate (pH=4.5) were added to separate lipids from water-soluble molecules. After vigorous mixing of the samples for 1 min, the two phases were separated, and a 0.5 ml aliquot of each phase was counted for ^18F and ^14C radioactivity. The aqueous phase was further analyzed for water-soluble metabolites using the gradient-HPLC method previously described.
Cells incubated in 6-well plates for 2 hr with radiotracers were thoroughly washed to remove all extracellular radioactivity. The cells were lysed in methanol and the methanol solution added to chloroform to solubilize all lipophilic metabolites.

[5] = calculated from mice biodistribution data

C[N+](C)(CF)CCO.[Cl-] [FCH, dimethylfluoromethyl-2-hydroxyethylammonium chloride]
effective dose equivalent (EDE) ([1]; 10 mCi administration): 1.1 rem | largest organ dose (kidney) ([1]; 10 mCi administration): 8.1 rads/rems | Human radiation dose estimate, Heart ([1]; calculated from mice FCH biodistribution data, 70 kg adult male phantom): 0.046 rads/mCi | Human radiation dose estimate, Bladder wall [1, 5]: 0.049 rads/mCi | Human radiation dose estimate, Bone [1, 5]: 0.038 rads/mCi | Human radiation dose estimate, Brain [1, 5]: 0.0071 rads/mCi | Human radiation dose estimate, Kidney [1, 5]: 0.81 rads/mCi | Human radiation dose estimate, Liver [1, 5]: 0.30 rads/mCi | Human radiation dose estimate, Lung [1, 5]: 0.043 rads/mCi | Human radiation dose estimate, Muscle [1, 5]: 0.032 rads/mCi | Human radiation dose estimate, Ovaries [1, 5]: 0.039 rads/mCi | Human radiation dose estimate, Red marrow [1, 5]: 0.043 rads/mCi | Human radiation dose estimate, Testes [1, 5]: 0.028 rads/mCi | stability in whole blood (HPLC) [2]: completely intact | phosphorylation rate compared with CH (yeast choline kinase; 1 μM choline): equivalent to CH | In vitro phosphorylation (yeast choline kinase; 1 μM choline, 25 mU/ml yeast choline kinase, 23° C., 10 min, n = 5): 62.0 ± 8.8% | IC50 (yeast choline kinase; choline 1-10,000 μM, 25 mU/ml choline kinase, 10 min, 23 C, read-out: apparent IC50 for inhibition of phosphorylation of radiotracer by choline): ~400 µM | Uptake in Blood ([3]; 10 min): 2.7 ± 0.9 % dose kg/100 g | Uptake in Brain ([3]; 10 min): 0.8 ± 0.3 % dose kg/100 g | Uptake in Heart ([3]; 10 min): 15.5 ± 5.9 % dose kg/100 g | Uptake in Kidney ([3]; 10 min): 127.7 ± 27.6 % dose kg/100 g | Uptake in Liver ([3]; 10 min): 50.7 ± 15.3 % dose kg/100 g | Uptake in Lung ([3]; 10 min): 18.0 ± 5.3 % dose kg/100 g | Uptake in Prostate ([3]; 10 min): 6.6 ± 2.2 % dose kg/100 g | Uptake in Skeletal Muscle ([3]; 10 min): 4.4 ± 1.8 % dose kg/100 g | Uptake in Tumor ([3]; 10 min): 3.6 ± 0.6 % dose kg/100 g | Uptake in Blood ([3]; 30 min): 3.3 ± 0.2 % dose kg/100 g | Uptake in Brain ([3]; 30 min): 1.0 ± 0.2 % dose kg/100 g | Uptake in Heart ([3]; 30 min): 13.2 ± 2.6 % dose kg/100 g | Uptake in Kidney ([3]; 30 min): 116 ± 17 % dose kg/100 g | Uptake in Liver ([3]; 30 min): 56.7 ± 13.2 % dose kg/100 g | Uptake in Lung ([3]; 30 min): 17.1 ± 1.4 % dose kg/100 g | Uptake in Prostate ([3]; 30 min): 7.1 ± 2.1 % dose kg/100 g | Uptake in Skeletal Muscle ([3]; 30 min): 1.1 ± 1.0 % dose kg/100 g | Uptake in Tumor ([3]; 30 min): 7.1 ± 2.1 % dose kg/100 g | Uptake in Blood ([3]; 60 min): 1.5 ± 0.6 % dose kg/100 g | Uptake in Brain ([3]; 60 min): 0.8 ± 0.1 % dose kg/100 g | Uptake in Heart ([3]; 60 min): 12.7 ± 3.2 % dose kg/100 g | Uptake in Kidney ([3]; 60 min): 94.3 ± 31.0 % dose kg/100 g | Uptake in Liver ([3]; 60 min): 58.4 ± 40.6 % dose kg/100 g | Uptake in Lung ([3]; 60 min): 21 ± 4.4 % dose kg/100 g | Uptake in Prostate ([3]; 60 min): 7.1 ± 3.0 % dose kg/100 g | Uptake in Skeletal Muscle ([3]; 60 min): 4.1 ± 0.6 % dose kg/100 g | Uptake in Tumor ([3]; 60 min): 7.9 ± 5.0 % dose kg/100 g | tumor uptake ([3]; PC-3 xenograft): ~0.07 % dose kg/g | injected dose in the urinary bladder ([3]; at 30 min): 10% | tumor:blood ratio ([3]; at 60 min): 5.3±2.4 | liver uptake compared with CH ([3]; mouse, in vivo): lower | uptake by normal brain compared with other tracers ([3]; mouse, in vivo): one tenth that for FDG; also recorded: one half that of CH | ^18F-labeled species: hydrophilic metabolites, FCH ([4]; +HC-3 (5 mM hemicholinium-3)): 0.04 ± 0.01 percentage of administered dose | ^18F-labeled species: hydrophilic metabolites, P-FCH ([4]; +HC-3 (5 mM hemicholinium-3)): 0.12 ± 0.03 percentage of administered dose | ^18F-labeled species: lipophilic metabolites ([4]; +HC-3 (5 mM hemicholinium-3)): 0.01 ± 0.01 percentage of administered dose | ^18F-labeled species: hydrophilic metabolites, FCH ([4]; Control, 2 hr, 37° C.): 0.29 ± 0.05 percentage of administered dose | ^18F-labeled species: hydrophilic metabolites, P-FCH ([4]; Control, 2 hr, 37° C.): 7.1 ± 0.9 percentage of administered dose | ^18F-labeled species: lipophilic metabolites ([4]; Control, 2 hr, 37° C.): 2.4 ± 0.4 percentage of administered dose | incorporation of radioactivity into lipophilic species, FCH relative to [^14C]CH ([4]; PC-3 cells, 2 hr): 5 fold | oxidation in the cancer cells (betaine / fluorobetaine by HPLC) ([4]; PC-3 cells, 2 hr): negligible | share of cell radioactivity found as phosphorylated tracer (phosphorylfluorocholine / phosphocholine) ([4]; PC-3 cells, 2 hr): Approximately 72% | share of total cell radioactivity as lipophilic metabolites ([4]; PC-3 cells, 2 hr): 25%
